Measurements as given in article PMC11721293 (JCI Insight, 2025).
Values joined by “and” are separate entries in the source; they are usually repeats but may differ in a detail not shown here. Identical values can stand only once. Like-named read-outs stand apart in the source and are kept apart here.

Experiments:
[1] = system: SARS-CoV-2 spike protein–mediated cell-cell fusion (B.1.315); assay type: cell-based; conditions: B.1.315 (printed), 48 h
[2] = system: SARS-CoV-2 spike protein–mediated cell-cell fusion (BA.1); assay type: cell-based; conditions: 48 h
SARS-CoV-2-nLUC [3] = assay type: cell-based; conditions: Nirmatrelvir 0 uM
[4] = system: SARS-CoV-2 spike protein–mediated cell-cell fusion (B.1.617); assay type: cell-based; conditions: 48 h
[5] = Pharmacokinetics after PO administration; conditions: K18-hACE2(Tg) C57Bl/6J, mouse, 25 mg/kg; for Kp / half-life: in vivo, PO; for Kp: AUC ratio (Tissue/PL)
[6] = Pharmacokinetics after single IP administration; conditions: K18-hACE2(Tg) C57Bl/6J, mouse, 40 mg/kg; for Kp / concentration at 24 h / half-life: in vivo, single IP; for Kp: AUC ratio (Tissue/PL); for concentration at 24 h: C24h
in vitro = conditions: human
SARS-CoV-2 [7] = assay: Virus-induced cytopathic effect (CPE) in VeroE6; assay type: cell-based
[8] = system: SARS-CoV-2 strain USA-WA1/2020; assay type: in vivo, mouse
[9] = system: SARS-CoV-2 strain USA-WA1/2020; assay type: in vivo, mouse; conditions: for Viral titer Log10: individual animals, sheet S9B
Calu3 cells = conditions: Fig 1F
[10] = system: SARS-CoV-2 spike protein–mediated cell-cell fusion (Wuhan); assay type: cell-based; conditions: 48 h
[11] = system: SARS-CoV-2 strain USA-WA1/2020; assay type: in vivo, mouse; remark: listed apart in the source
SARS-CoV-2-nLUC [12] = assay: microbe, parasite or virus in culture; assay type: cell-based; conditions: for viral inhibition (EC50 curve data): Huh7A2T2, log[Lonafarnib]; for Replication: LNF
[13] = Fifty MPK twice daily; cited from earlier work
SARS-CoV-2 [14] = assay type: cell-based; conditions: for percentage replication relative to untreated, infected control: LNF 10 μM
SARS-CoV-2 replicon = assay: microbe, parasite or virus in culture; assay type: cell-based
[15] = LNF 40 MPK IP, RDV 25 MPK SC, twice daily

Which results are given for NC(=O)N1CCC(CC(=O)N2CCC([C@H]3c4ncc(Br)cc4CCc4cc(Cl)cc(Br)c43)CC2)CC1 [LNF, lonafarnib]?
relative luciferase signals ([1]; Conc-mM 0.3 (printed)): 107.391 and 104.235 and 80.412 and 106.736; relative luciferase signals ([1]; Conc-mM 1 (printed)): 99.0641 and 83.1761 and 82.6205 and 92.2492; relative luciferase signals ([1]; Conc-mM 3 (printed)): 65.2189 and 57.2378 and 55.5623 and 61.7046; relative luciferase signals ([1]; Conc-mM 10 (printed)): 36.5792 and 34.1792 and 24.08 and 33.4344; relative luciferase signals ([2]; 0.3 (printed)): 93.9702 and 58.6533 and 53.4918 and 75.0181; relative luciferase signals ([2]; 1 (printed)): 108.194 and 73.2387 and 73.7551 and 89.5366; Response (SARS-CoV-2-nLUC [3]; Lonafarnib 2.5 uM): 71.2556 and 72.7427 and 61.8907; Response (SARS-CoV-2-nLUC [3]; Lonafarnib 5 uM): 96.7703 and 97.5859 and 97.3674; relative luciferase signals ([4]; Conc-mM 0.3 (printed)): 89.139 and 98.5081 and 88.3035 and 100.955; relative luciferase signals ([4]; Conc-mM 1 (printed)): 86.0359 and 78.2183 and 102.626 and 94.5695; relative luciferase signals ([4]; Conc-mM 3 (printed)): 65.1493 and 69.6847 and 66.5219 and 76.0103; relative luciferase signals ([4]; Conc-mM 10 (printed)): 35.8018 and 38.2651 and 35.7143 and 29.2527; AUC(0-inf) ([5]; brain): 3 µM·h; Cmax ([5]; brain): 0.21 µM; Tmax ([5]; brain): 7 h; AUC(0-inf) ([5]; heart): 97 µM·h; Cmax ([5]; heart): 8.6 µM; Tmax ([5]; heart): 1 h; Kp ([5]; Brain): 0.056; Kp ([5]; Heart): 1.8; Kp ([5]; Kidney): 2.1; Kp ([5]; Liver): 5.2; Kp ([5]; Lung): 2.4; half-life ([5]; t1/2, Brain): 2.4 h; half-life ([5]; t1/2, Heart): 2.2 h; half-life ([5]; t1/2, Kidney): 2.4 h; half-life ([5]; t1/2, Liver): 1.7 h; half-life ([5]; t1/2, Lung): 2.1 h; half-life ([5]; t1/2, Plasma): 1.4 h; AUC(0-inf) ([5]; kidney): 113 µM·h; Cmax ([5]; kidney): 9.3 µM; Tmax ([5]; kidney): 1 h; AUC(0-inf) ([5]; liver): 279 µM·h; Cmax ([5]; liver): 20 µM; Tmax ([5]; liver): 7 h; AUC(0-inf) ([5]; lung): 129 µM·h; Cmax ([5]; lung): 33 µM; Tmax ([5]; lung): 0.25 h; AUC(0-inf) ([5]; plasma): 53 µM·h; Cmax ([5]; plasma): 3.8 µM; Tmax ([5]; plasma): 7 h; AUC(0-inf) ([6]; brain): 29 µM·h; Cmax ([6]; brain): 1.46 µM; Tmax ([6]; brain): 7 h; AUC(0-inf) ([6]; heart): 987 µM·h; Cmax ([6]; heart): 94.1 µM; Tmax ([6]; heart): 0.5 h; Kp ([6]; Brain): 0.12; Kp ([6]; Heart): 3.9; Kp ([6]; Kidney): 2.8; Kp ([6]; Liver): 12; Kp ([6]; Lung): 3.1; concentration at 24 h ([6]; Brain): 0.36 µM; concentration at 24 h ([6]; Heart): 11.4 µM; concentration at 24 h ([6]; Kidney): 8.24 µM; concentration at 24 h ([6]; Liver): 40.3 µM; concentration at 24 h ([6]; Lung): 8.17 µM; concentration at 24 h ([6]; Plasma): 2.76 µM; half-life ([6]; t1/2, Brain): 8.3 h; half-life ([6]; t1/2, Heart): 10.1 h; half-life ([6]; t1/2, Kidney): 9 h; half-life ([6]; t1/2, Liver): 10.7 h; half-life ([6]; t1/2, Lung): 8.7 h; half-life ([6]; t1/2, Plasma): 8.8 h; AUC(0-inf) ([6]; kidney): 699 µM·h; Cmax ([6]; kidney): 46 µM; Tmax ([6]; kidney): 1 h; AUC(0-inf) ([6]; liver): 3060 µM·h; Cmax ([6]; liver): 224 µM; Tmax ([6]; liver): 0.25 h; AUC(0-inf) ([6]; lung): 788 µM·h; Cmax ([6]; lung): 93.5 µM; Tmax ([6]; lung): 0.25 h; AUC(0-inf) ([6]; plasma): 253 µM·h; Cmax ([6]; plasma): 63.3 µM; Tmax ([6]; plasma): 0.08 h; CC50 (in vitro): > 30 µM; effect on virus-induced CPE (SARS-CoV-2 [7]): rescued the infected cells from virus-induced CPE; Histopathology Score ([8]; Day 2, individual animals): 2 (2×) and 1 and 0.5 and 1.5 (3×) and 0 (3×); Histopathology Score ([8]; Day 5, individual animals): 0.5 (3×) and 1 (4×) and 2.5 and 1.5 and 0; lung histopathology score vs vehicle ([8]; day 5): significantly lower histopathology score; lung viral titer lower than vehicle-treated group ([9]; 40 MPK IP twice daily, […]): ~2 log; Viral titer Log10 ([9]; D2): 7.238 Log10 and 6.041 Log10 and 6.833 Log10 and 6.059 Log10 and 6.826 Log10 and 4.954 Log10 and 7.083 Log10 and 4.756 Log10; Viral titer Log10 ([9]; D5): 6.491 Log10 and 7.228 Log10 and 6.919 Log10 and 6.362 Log10 (2×) and 6.681 Log10 and 7.255 Log10 and 4 Log10 and 7.033 Log10; Titer Log10 ([9]; Day 2, individual animals): 1.954 (5×) and 2 and 4.538 and 2.301 and 3.13 (2×); Titer Log10 ([9]; Day 5, individual animals): 1.954 (3×) and 2.301 and 3.23 and 3.176 and 2.699 and 2.602 and 3.398 and 2.477; lung viral titer [9, 15]: significantly lowered the viral titer in the lung; CC50 (Calu3 cells): > 30 µM; relative luciferase signals ([10]; 0.3 (printed)): 83.8904 and 99.372 and 100.719 and 105.145; relative luciferase signals ([10]; 1 (printed)): 76.0312 and 74.8493 and 82.9658 and 76.539; relative luciferase signals ([10]; 3 (printed)): 82.9427 and 55.6651 and 51.5871 and 56.5775; relative luciferase signals ([10]; 10 (printed)): 30.6993 and 29.5083 and 34.9918 and 28.4711; Clinical Score ([11]; Day 5, individual animals): 1 (3×) and 0 (7×); composite clinical score [11, 15]: much improved disease parameters; selectivity index (SI = CC50/EC50) (SARS-CoV-2-nLUC [12]): greater than 10; viral inhibition (EC50 curve data) (SARS-CoV-2-nLUC [12]; μM 0.39794, 24 h): 31.0378 and 31.6733 and 41.1788 and 40.0144; viral inhibition (EC50 curve data) (SARS-CoV-2-nLUC [12]; μM 1, 24 h): 85.1292 and 83.5424 and 87.1345 and 86.5675; Replication (SARS-CoV-2-nLUC [12]; Log[LNF} mM 0.09691): 60.948 and 56.887 and 64.8083; Replication (SARS-CoV-2-nLUC [12]; Log[LNF} mM 0.39794): 44.056 and 34.731 and 47.009; Replication (SARS-CoV-2-nLUC [12]; Log[LNF} mM 1): 12.4102 and 12.97 and 12.6676; Replication (SARS-CoV-2-nLUC [12]; Log[LNF} mM -0.522879): 64.2793 and 76.4681 and 101.013; EC50 (SARS-CoV-2-nLUC [12]; Severe acute respiratory syndrome coronavirus 2, 24 h, Huh7.5A2T2, 24 h, Fig 1G, read-out: EC50): 3.46 µM; EC50 (SARS-CoV-2-nLUC [12]; Severe acute respiratory syndrome coronavirus 2, 24 h, VeroE6T2, 24 h, Fig 1G, read-out: EC50): 2.24 µM; EC50 (SARS-CoV-2-nLUC [12]; Severe acute respiratory syndrome coronavirus 2, Calu-3, 24 h, Calu3, 24 h, Fig 1G, read-out: EC50): 3.11 µM; EC50 (SARS-CoV-2-nLUC [12]; Severe acute respiratory syndrome coronavirus 2, Vero C1008, 24 h, VeroE6, 24 h, Fig 1G, Fig 5B, read-out: EC50): 2.03 µM; EC50 (SARS-CoV-2-nLUC [12]; Severe acute respiratory syndrome coronavirus 2, VeroE6, Huh7.5A2T2, VeroE6T2, Calu3, read-out: EC50 values, range over cell lines): 2.03 to 3.46 µM; EC50 (SARS-CoV-2-nLUC [12]; VeroE6, 24 h, Fig 1G, Fig 5B, read-out: EC50): 2 µM; toxicity in preclinical mouse studies [13]: without any toxicity; time-of-addition result (SARS-CoV-2 [14]): high efficacy of LNF even if the drug was added 4–24 hours after infection; effect on early events of viral infection (SARS-CoV-2 [14]; Calu3, 10 μM): little or no effect on the early events of viral infection; effect when drug present during an initial period of viral infection (SARS-CoV-2 [14]; VeroE6, 10 μM): 50%; percentage replication relative to untreated, infected control (SARS-CoV-2 [14]; VeroE6, drug present (0,4) h): 51.9274% and 49.1443% and 50.2213% and 50.0245% and 32.7935% and 31.4407% and 36.9633% and 35.1922%; percentage replication relative to untreated, infected control (SARS-CoV-2 [14]; VeroE6, drug present (0,24) h): 1.998% and 1.949% and 1.813% and 1.81% and 1.891% and 1.817% and 1.711% and 1.724%; percentage replication relative to untreated, infected control (SARS-CoV-2 [14]; VeroE6, drug present (2,4) h): 73.914% and 71.0289% and 54.3207% and 56.213% and 71.519% and 69.7874% and 67.1461% and 65.4707%; percentage replication relative to untreated, infected control (SARS-CoV-2 [14]; VeroE6, drug present (2,24) h): 3.962% and 4.023% and 3.69% and 3.889% and 3.6% and 3.5757% and 3.292% and 3.351%; percentage replication relative to untreated, infected control (SARS-CoV-2 [14]; VeroE6, drug present (4,24) h): 4.215% and 4.26% and 5.337% and 5.659% and 5.734% and 5.806% and 3.6315% and 3.627%; percentage replication relative to untreated, infected control (SARS-CoV-2 [14]; VeroE6, drug present (-2,0) h): 98.397% and 97.5913% and 93.062% and 94.6733% and 95.1896% and 94.1548% and 95.9294% and 95.558%; percentage replication relative to untreated, infected control (SARS-CoV-2 [14]; VeroE6, drug present (-2,2) h): 55.8703% and 55.9821% and 50.6506% and 51.7567% and 51.3569% and 50.1515% and 51.6639% and 51.979%; percentage replication relative to untreated, infected control (SARS-CoV-2 [14]; VeroE6, drug present (-2,4) h): 43.6671% and 43.2347% and 41.1828% and 42.7136% and 40.9571% and 40.8036% and 42.923% and 42.3078%; percentage replication relative to untreated, infected control (SARS-CoV-2 [14]; VeroE6, drug present (-2,24) h): 1.731% and 1.694% and 2.365% and 2.435% and 2.361% and 2.315% and 1.913% and 1.91%; EC50 (SARS-CoV-2 replicon): 7.8 µM; Inhibition (SARS-CoV-2 replicon): 99.8867; Inhibition (SARS-CoV-2 replicon; Log[LNF} mM 1): 58.6507 and 68.927 and 62.2766 and 74.1393; EC50 (SARS-CoV-2 replicon; Severe acute respiratory syndrome coronavirus 2, Huh7.5, 24 h): 7.88 µM
